The results in this text go back to ChEMBL document CHEMBL6134836, “Medicinal Chemistry: A Key Driver in Achieving the Global Sustainable Development Goals” (J Med Chem, 2025).

Data set [1] can be described thus: Cytotoxicity against mouse BaF3 cells expressing BCR-ABL assessed as cell viability. The format is toxicity, cell-based.
Data set [2] has as its system dengue virus type 1. Nature of the data set: Antiviral activity against Dengue virus 1 infected in syrian hamster BHK-21 cells assessed as inhibition of plaque formation pretreated with compound for 45 mins followed by viral infection for 24 hrs. The format is functional. As to conditions: BHK-21, 24.75 h, time 1485 min.
Data set [3] concerns dengue virus type 2. Nature of the data set: Antiviral activity against Dengue virus 2 infected in syrian hamster BHK-21 cells assessed as inhibition of plaque formation pretreated with compound for 45 mins followed by viral infection for 24 hrs. The format is functional. Conditions: BHK-21, 24.75 h, time 1485 min.
In data set [4] the test system is dengue virus type 3. Briefly: Antiviral activity against Dengue virus 3 infected in syrian hamster BHK-21 cells assessed as inhibition of plaque formation pretreated with compound for 45 mins followed by viral infection for 24 hrs. The format is functional. Conditions: BHK-21, 24.75 h, time 1485 min.
The test system of data set [5] is dengue virus type 4. Nature of the data set: Antiviral activity against Dengue virus 4 infected in syrian hamster BHK-21 cells assessed as inhibition of plaque formation pretreated with compound for 45 mins followed by viral infection for 24 hrs. The format is functional. As to conditions: BHK-21, 24.75 h, time 1485 min.
The test system of data set [6] is Kunjin virus. Briefly: Antiviral activity against Kunjin virus. Type of data set: functional, organism-based. As to conditions: West Nile virus.

As usually defined, the IC50 is the concentration that inhibits the measured activity by half. As a reminder, the IC90 is the point of the concentration-response curve where the effect stands at 90%. A word on the EC50: it is the concentration at which the effect is half-maximal. Read a low EC50 as higher potency in that assay.

For the molecule `NC(=O)c1cccc(-c2cc(Nc3ccc(OC(F)(F)F)cc3)ncn2)c1`, the IC50 in data set [1] was above 10 µM. In addition, the IC90 in data set [2], in data set [3], in data set [4] and in data set [5] was 20 µM each time. The molecule also had an EC50 in data set [6] above 20 µM.
